In patent publication US7271158B2, “Treatment of rumen acidosis with α-amylase inhibitors” (Pfizer Inc., priority 2000, dated 2007):

Assays:
[1] = test system: rumen fluid fermentation (RUSITEC chronic acidosis model); experiment: RUSITEC rumen simulation, chronic acidosis model: acarbose; type: cell-based, Guernsey cow; conditions: for increase in butyrate production: between control and treatment periods (0 mg/vessel/d: 24%); for change in VFA production: treatment period vs preceding control period (0 mg/vessel/d: −3%)
From the text: Evaluation of Agents Using the Rumen Simulation Technique ([…]) to Model Chronic Acidosis. The in vitro rumen simulation technique ([…]), first described by Czerkawski and Breckenridge (1977) was used to evaluate the effect of the bacterial α-amylase and/or α-glucosidase inhibitor acarbose on daily pH profiles and VFA production using a commercial cattle concentrate ration (GH313-see later). […] Equipment: The apparatus consisted of two […] units each containing four-fermentation vessels. […] The feed was placed in a nylon bag (14×9 cm, 50 μm), and was gently agitated using a piston mechanism (8 strokes/min). Buffer (McDougall, 1948) was continuously infused at a rate of approximately 750 ml/day by an eight channel peristaltic pump (Watson Marlow). The effluent was collected in 1 liter glass bottles containing 20 ml of oxalic acid solution (12 g/100 ml in deionised water). This was added to inhibit further microbial activity Feed: Each vessel was fed daily with a bag containing 30 g of the commercial pelleted ration GH313 (89% dry matter) and 2.5 g barley straw (90% dry matter) chopped into 1-2 cm lengths. 7 g of corn starch (Sigma Cal. No. S4126) was added to the liquid phase of all fermenter vessels at feeding on the last four days of the experiment to simulate acute acidosis. Rumen fluid donor: Rumen fluid was collected from a five year old dry Guernsey cow. […] Rumen contents were collected via a rumen fistula (Bar Diamond Inc. P.O. Box. 60. Bar Diamond Lane. Parma. Id. 83660-0060. U.S.A) Vessel inoculation: Rumen contents were taken from the fistulated donor animal at 08:00 h (before the morning feed). The material was carried to the laboratory in pre-warmed insulated flasks, and then strained through four layers of cotton gauze into another pre-warmed insulated flask. 70 g of the solid residue were weighed into each of eight nylon bags. One bag containing rumen solids, and one bag containing fresh feed was placed in the feed chamber for each vessel. The liquid contents of each vessel were 100 ml deionised water, 200 ml of buffer artificial and 500 ml of rumen fluid. After assembling and sealing the vessels, they were placed in the water baths and the piston rod attached to the drive bar. The effluent tubes were placed in the collection flasks. The head space in each vessel was flushed with CO2 for 2 min., then the piston drive motor and buffer infusion pump were started. Daily maintenance and sampling procedure: These procedures were carried out at the same time each day. Eight feed bags were prepared, and a 1 l dispenser bottle containing infusion buffer warmed to 39° C. Treatment with acarbose: Acarbose was obtained as GlucobayTM tablets (Bayer, AAH Pharmaceuticals) Each tablet contains 100 mg acarbose. Duplicate vessels were treated with 0, 1, 10 and 100 mg/d of acarbose by adding 1 tablet to each of two feed bags to give 100 mg/vessel/d. The lower doses were prepared by dissolving/suspending a tablet in 10 ml buffer (giving a 10 mg/ml solution of acarbose). One ml of this solution was then added to 9 ml of buffer, giving a 1 mg/ml solution. One ml of each solution was then added to the contents of two feed bags, to give 10 and 1 mg/vessel/d. Finally, the acarbose was dried on to the feed by leaving the bags at room temperature overnight. Analyses: Dry matter losses from the nylon bags after 48 hours incubation were measured by drying the washed bag contents in an oven for 23 h at 65° C. Effluent samples (10 ml) were taken daily and stored at -20° C. for subsequent VFA and lactate analysis .pH was automatically recorded at 17 min. intervals using equipment supplied by Philip Harris Education. A combination electrode was fitted in each vessel via a gas-tight port in the lid. […] The recorded pH values were downloaded to a PC running […] 32 software (Philip Harris Education) and then transferred to a spreadsheet for further analysis. […]

E. faecium = experiment: Minimum inhibitory concentrations in aerobes (agar dilution)
E. faecalis = experiment: as above
S. aureus = experiment: as above

CC1OC(OC2C(CO)OC(OC3C(CO)OC(O)C(O)C3O)C(O)C2O)C(O)C(O)C1NC1C=C(CO)C(O)C(O)C1O (stereo not shown) [Acarbose, acarbose]
76%: increase in butyrate production ([1]; 10 mg/vessel/d)
+3%: change in VFA production ([1]; 1 mg/vessel/d)
27%: increase in butyrate production ([1]; 1 mg/vessel/d)
−10%: change in VFA production ([1]; 10 mg/vessel/d)
−16%: change in VFA production ([1]; 100 mg/vessel/d)
>128 µg/mL: MIC (E. faecium; E. faecium 1.1.6) | MIC (E. faecium; E. faecium 1.2.4) | MIC (E. faecium; E. faecium 1.2.6) | MIC (E. faecium; E. faecium 3.1) | MIC (E. faecium; E. faecium 4.5) | MIC (E. faecium; E. faecium 5.4) | MIC (E. faecium; E. faecium 10.1) | MIC (E. faecium; E. faecium 28.6.7) | MIC (E. faecium; E. faecium 28.7.7) | MIC (E. faecalis; E. faecalis 1.1.16) | MIC (E. faecalis; E. faecalis 1.1.4) | MIC (E. faecalis; E. faecalis 1.10.4) | MIC (E. faecalis; E. faecalis 1.3.13) | MIC (E. faecalis; E. faecalis 1.4.12) | MIC (E. faecalis; E. faecalis 1.6.6) | MIC (E. faecalis; E. faecalis 1.9.5) | MIC (E. faecalis; E. faecalis 28.5.7) | MIC (E. faecalis; E. faecalis 28.6.9) | MIC (S. aureus; S. aureus 3.4) | MIC (S. aureus; S. aureus 3.5) | MIC (S. aureus; S. aureus 5.1) | MIC (S. aureus; S. aureus 6.1) | MIC (S. aureus; S. aureus 8.2) | MIC (S. aureus; S. aureus 8.3) | MIC (S. aureus; S. aureus 9.3) | MIC (S. aureus; S. aureus 10.3) | MIC (S. aureus; S. aureus 10.4)
> 128 µg/mL: MIC (E. faecium; Enterococcus faecium) | MIC (E. faecalis; Enterococcus faecalis) | MIC (S. aureus; Staphylococcus aureus) | MIC (S. aureus; Staphylococcus aureus, NCTC6571)
134%: increase in butyrate production ([1]; 100 mg/vessel/d)
